Results taken from patent publication US20260262643A1, “HERBICIDAL BENZOXAZINES” (FMC CORPORATION, priority 2022, published 2026).

Assays:
barnyardgrass [1] = assay: Test C preemergence; format: in vivo, Echinochloa crusgalli; settings: 0 to 100 scale (0 no effect, 100 complete control); for Plant response rating, Barnyardgrass: Preemergence, 500 g ai/ha, visual rating after 10 days; for Barnyardgrass plant response rating: Test C, preemergence, 125 g ai/ha
Method in brief: (§1)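 Greenhouse herbicide screen, 10-day duration. Test chemicals in solvent/surfactant blend were sprayed onto soil at sowing (pre) or onto 2–10 cm seedlings at one to two leaves (post); injury scored visually against controls, 0 no effect to 100 complete control.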

barnyardgrass [2] = assay: Test D flooded paddy test; format: in vivo, Echinochloa crus-galli; settings: 250 g ai/ha, applied to paddy water, visual rating after 13 to 14 days, scale 0 to 100 (0 no effect, 100 complete control)
Protocol: (§2) Plant species in the flooded paddy test selected from barnyardgrass (Echinochloa crus-galli), ducksalad (Heteranthera limosa), rice (Oryza sativa), and sedge, umbrella (small-flower umbrella sedge, Cyperus difformis) were grown to the 2-leaf stage for testing. At time of treatment, test pots were flooded to 3 cm above the soil surface, treated by application of test compounds directly to the paddy water, and then maintained at that water depth for the duration of the test. Treated plants and controls were maintained in a greenhouse for 13 to 14 days, after which time all species were compared to controls and visually evaluated. Plant response ratings, summarized in Table D, are based on a scale of 0 to 100 where 0 is no effect and 100 is complete control. A dash (-) response means no test result.

green foxtail = assay: Test C preemergence; format: in vivo, Setaria viridis; settings: 0 to 100 scale (0 no effect, 100 complete control); for Plant response rating, Foxtail, Green: Preemergence, 500 g ai/ha, visual rating after 10 days; for Foxtail, Green plant response rating: Test C, preemergence, 125 g ai/ha
Method in brief: as §1

galium = assay: Test C postemergence; format: in vivo, Galium aparine; settings: 10 days
Method in brief: as §1

soybean [3] = assay: Test C preemergence; format: in vivo, Glycine max; settings: 0 to 100 scale (0 no effect, 100 complete control); for Plant response rating, Soybean: Preemergence, 500 g ai/ha, visual rating after 10 days; for Soybean plant response rating: Test C, preemergence, 125 g ai/ha
Method in brief: as §1

rice = assay: Test D flooded paddy test; format: in vivo, Oryza sativa; settings: 250 g ai/ha, applied to paddy water, visual rating after 13 to 14 days, scale 0 to 100 (0 no effect, 100 complete control)
Protocol: as §2

barnyardgrass [4] = assay: Test C postemergence; format: in vivo, Echinochloa crusgalli; settings: 10 days
Method in brief: as §1

pigweed, palmer [5] = assay: Test C preemergence; format: in vivo, Amaranthus palmeri; settings: 0 to 100 scale (0 no effect, 100 complete control); for Plant response rating, Pigweed, Palmer: Preemergence, 500 g ai/ha, visual rating after 10 days; for Pigweed, Palmer plant response rating: Test C, preemergence, 125 g ai/ha
Method in brief: as §1

wheat [6] = assay: Test C postemergence; format: in vivo, Triticum aestivum; settings: 10 days
Method in brief: as §1

wheat [7] = assay: Test C preemergence; format: in vivo, Triticum aestivum; settings: 0 to 100 scale (0 no effect, 100 complete control); for Plant response rating, Wheat: Preemergence, 500 g ai/ha, visual rating after 10 days; for Wheat plant response rating: Test C, preemergence, 125 g ai/ha
Method in brief: as §1

blackgrass [8] = assay: Test C postemergence; format: in vivo, Alopecurus myosuroides; settings: 10 days
Method in brief: as §1

kochia [9] = assay: Test C preemergence; format: in vivo, Bassia scoparia; settings: 0 to 100 scale (0 no effect, 100 complete control); for Plant response rating, Kochia: Preemergence, 500 g ai/ha, visual rating after 10 days; for Kochia plant response rating: Test C, preemergence, 125 g ai/ha
Method in brief: as §1

ragweed [10] = assay: Test C preemergence; format: in vivo, Ambrosia artemisiifolia; settings: 0 to 100 scale (0 no effect, 100 complete control); for Plant response rating, Ragweed: Preemergence, 500 g ai/ha, visual rating after 10 days; for Ragweed plant response rating: Test C, preemergence, 125 g ai/ha
Method in brief: as §1

oat, wild [11] = assay: Test C preemergence; format: in vivo, Avena fatua; settings: 0 to 100 scale (0 no effect, 100 complete control); for Plant response rating, Oat, Wild: Preemergence, 500 g ai/ha, visual rating after 10 days; for Oat, Wild plant response rating: Test C, preemergence, 125 g ai/ha
Method in brief: as §1

corn [12] = assay: Test C postemergence; format: in vivo, Zea mays; settings: 10 days
Method in brief: as §1

corn [13] = assay: Test C preemergence; format: in vivo, Zea mays; settings: 0 to 100 scale (0 no effect, 100 complete control); for Plant response rating, Corn: Preemergence, 500 g ai/ha, visual rating after 10 days; for Corn plant response rating: Test C, preemergence, 125 g ai/ha
Method in brief: as §1

kochia [14] = assay: Test C postemergence; format: in vivo, Bassia scoparia; settings: 10 days
Method in brief: as §1

ducksalad = assay: Test D flooded paddy test; format: in vivo, Heteranthera limosa; settings: 250 g ai/ha, applied to paddy water, visual rating after 13 to 14 days, scale 0 to 100 (0 no effect, 100 complete control)
Protocol: as §2

pigweed, palmer [15] = assay: Test C postemergence; format: in vivo, Amaranthus palmeri; settings: 10 days
Method in brief: as §1

horseweed = assay: Test C postemergence; format: in vivo, Erigeron canadensis; settings: 10 days
Method in brief: as §1

ryegrass, Italian [16] = assay: Test C preemergence; format: in vivo, Lolium multiflorum; settings: 0 to 100 scale (0 no effect, 100 complete control); for Plant response rating, Ryegrass, Italian: Preemergence, 500 g ai/ha, visual rating after 10 days; for Ryegrass, Italian plant response rating: Test C, preemergence, 125 g ai/ha
Method in brief: as §1

ragweed [17] = assay: Test C postemergence; format: in vivo, Ambrosia artemisiifolia; settings: 10 days
Method in brief: as §1

oat, wild [18] = assay: Test C postemergence; format: in vivo, Avena fatua; settings: 10 days
Method in brief: as §1

sedge, umbrella = assay: Test D flooded paddy test; format: in vivo, Cyperus difformis; settings: 250 g ai/ha, applied to paddy water, visual rating after 13 to 14 days, scale 0 to 100 (0 no effect, 100 complete control)
Protocol: as §2

blackgrass [19] = assay: Test C preemergence; format: in vivo, Alopecurus myosuroides; settings: 0 to 100 scale (0 no effect, 100 complete control); for Plant response rating, Blackgrass: Preemergence, 500 g ai/ha, visual rating after 10 days; for Blackgrass plant response rating: Test C, preemergence, 125 g ai/ha
Method in brief: as §1

ryegrass, Italian [20] = assay: Test C postemergence; format: in vivo, Lolium multiflorum; settings: 10 days
Method in brief: as §1

soybean [21] = assay: Test C postemergence; format: in vivo, Glycine max; settings: 10 days
Method in brief: as §1

[22] = 125 g ai/ha, postemergence, 0 to 100 scale, 0 no effect, 100 complete control
[23] = Postemergence, 500 g ai/ha, visual 0 to 100 scale (0 no effect, 100 complete control)

COc1ccc(-n2cnc(C(C)(C)O)n2)cc1C(=O)N1C[C@H](C)Oc2c(Cl)cccc21 [Compound 254]
70: Barnyardgrass plant response rating (barnyardgrass [1]) | Wheat plant response rating (wheat [7]) | Plant response rating, Ryegrass, Italian (ryegrass, Italian [20]; [22])
50: Plant response rating, Barnyardgrass (barnyardgrass [4]; [22]) | Plant response rating, Wheat (wheat [6]; [22]) | Plant response rating, Corn (corn [13]) | Corn plant response rating (corn [13])
100: Plant response rating, Barnyardgrass (barnyardgrass [1]) | Plant response rating, Foxtail, Green (green foxtail) | Foxtail, Green plant response rating (green foxtail) | Plant response rating, Galium (galium; [22]) | Plant response rating, Galium (galium; [23]) | Plant response rating, Soybean (soybean [3]) | Soybean plant response rating (soybean [3]) | Plant response rating, Pigweed, Palmer (pigweed, palmer [5]) | Pigweed, Palmer plant response rating (pigweed, palmer [5]) | Plant response rating, Pigweed, Palmer (pigweed, palmer [15]; [23]) | Plant response rating, Ragweed (ragweed [17]; [23]) | Plant response rating, Soybean (soybean [21]; [22]) | Plant response rating, Soybean (soybean [21]; [23])
20: Plant response rating, Rice (Flood) (rice) | Plant response rating, Horseweed (horseweed; [23])
90: Plant response rating, Wheat (wheat [7]) | Plant response rating, Blackgrass (blackgrass [8]; [23]) | Plant response rating, Kochia (kochia [9]) | Kochia plant response rating (kochia [9]) | Plant response rating, Ragweed (ragweed [10]) | Plant response rating, Oat, Wild (oat, wild [11]) | Oat, Wild plant response rating (oat, wild [11]) | Plant response rating, Corn (corn [12]; [23]) | Plant response rating, Kochia (kochia [14]; [23]) | Plant response rating, Pigweed, Palmer (pigweed, palmer [15]; [22]) | Plant response rating, Ryegrass, Italian (ryegrass, Italian [16]) | Ryegrass, Italian plant response rating (ryegrass, Italian [16]) | Plant response rating, Ragweed (ragweed [17]; [22]) | Plant response rating, Oat, Wild (oat, wild [18]; [23])
98: Plant response rating, Ducksalad (Flood) (ducksalad) | Plant response rating, Sedge, Umbrella (Flood) (sedge, umbrella)
80: Plant response rating, Barnyardgrass (barnyardgrass [4]; [23]) | Plant response rating, Wheat (wheat [6]; [23]) | Plant response rating, Blackgrass (blackgrass [8]; [22]) | Ragweed plant response rating (ragweed [10]) | Plant response rating, Corn (corn [12]; [22]) | Plant response rating, Kochia (kochia [14]; [22]) | Plant response rating, Oat, Wild (oat, wild [18]; [22]) | Plant response rating, Blackgrass (blackgrass [19]) | Plant response rating, Ryegrass, Italian (ryegrass, Italian [20]; [23])
25: Plant response rating, Barnyardgrass (Flood) (barnyardgrass [2])
40: Blackgrass plant response rating (blackgrass [19])
30: Plant response rating, Horseweed (horseweed; [22])

Cc1ccc(-n2cnc(C(C)(C)O)n2)cc1C(=O)N1C[C@H](C)Oc2c(C)cccc21 [Compound 256]
40: Plant response rating, Horseweed (horseweed; [23])
98: Plant response rating, Ducksalad (Flood) (ducksalad) | Plant response rating, Sedge, Umbrella (Flood) (sedge, umbrella)
35: Plant response rating, Rice (Flood) (rice)
100: Plant response rating, Barnyardgrass (barnyardgrass [1]) | Barnyardgrass plant response rating (barnyardgrass [1]) | Plant response rating, Foxtail, Green (green foxtail) | Foxtail, Green plant response rating (green foxtail) | Plant response rating, Galium (galium; [22]) | Plant response rating, Galium (galium; [23]) | Soybean plant response rating (soybean [3]) | Plant response rating, Pigweed, Palmer (pigweed, palmer [5]) | Pigweed, Palmer plant response rating (pigweed, palmer [5]) | Plant response rating, Pigweed, Palmer (pigweed, palmer [15]; [23]) | Plant response rating, Ryegrass, Italian (ryegrass, Italian [16]) | Plant response rating, Ryegrass, Italian (ryegrass, Italian [20]; [23]) | Plant response rating, Soybean (soybean [21]; [22]) | Plant response rating, Soybean (soybean [21]; [23])
60: Plant response rating, Barnyardgrass (barnyardgrass [4]; [22]) | Plant response rating, Kochia (kochia [14]; [22])
45: Plant response rating, Barnyardgrass (Flood) (barnyardgrass [2])
90: Plant response rating, Soybean (soybean [3]) | Plant response rating, Barnyardgrass (barnyardgrass [4]; [23]) | Plant response rating, Wheat (wheat [6]; [23]) | Plant response rating, Wheat (wheat [7]) | Plant response rating, Blackgrass (blackgrass [8]; [22]) | Plant response rating, Blackgrass (blackgrass [8]; [23]) | Plant response rating, Kochia (kochia [9]) | Plant response rating, Ragweed (ragweed [10]) | Plant response rating, Oat, Wild (oat, wild [11]) | Oat, Wild plant response rating (oat, wild [11]) | Plant response rating, Corn (corn [12]; [22]) | Plant response rating, Corn (corn [12]; [23]) | Plant response rating, Corn (corn [13]) | Ryegrass, Italian plant response rating (ryegrass, Italian [16]) | Plant response rating, Oat, Wild (oat, wild [18]; [22]) | Plant response rating, Oat, Wild (oat, wild [18]; [23]) | Plant response rating, Blackgrass (blackgrass [19]) | Plant response rating, Ryegrass, Italian (ryegrass, Italian [20]; [22])
80: Plant response rating, Wheat (wheat [6]; [22]) | Wheat plant response rating (wheat [7]) | Kochia plant response rating (kochia [9]) | Plant response rating, Kochia (kochia [14]; [23]) | Plant response rating, Pigweed, Palmer (pigweed, palmer [15]; [22]) | Plant response rating, Ragweed (ragweed [17]; [23])
30: Plant response rating, Horseweed (horseweed; [22])
50: Corn plant response rating (corn [13])
70: Ragweed plant response rating (ragweed [10]) | Plant response rating, Ragweed (ragweed [17]; [22]) | Blackgrass plant response rating (blackgrass [19])
